Source: patent US20180099961A1, “PROTEIN KINASE INHIBITORS” (Princeton Drug Discovery Inc, priority 2016, published 2018)
Where two headings read alike, the source gives them in different places.

Key:
[1] = Metabolic stability in human liver microsomes; type: in vitro ADME; settings: for microsomal CLint at 1 μM / half-life at 1 μM: human, liver microsomes, human liver microsomes 0.5 mg/mL, NADPH and UDPGA, 37° C.; for microsomal CLint at 1 μM: read-out: CLint (intrinsic clearance); for half-life at 1 μM: read-out: In vitro t1/2; for metabolic stability as compared to dasatinib: human liver microsomes
Protocol: FIG. 1. Metabolic stability of compounds in human liver microsomal incubations. […] Concentrations at specified times were determined by LC-MS/MS.
The incubation reactions at various time points were quenched by adding 2× volumes of acetonitrile containing 100 nM reserpine. The quenched incubation samples were centrifuged at 4000 RPM for 10 min, and the supernatants injected for LC/MS/MS analysis. LC/MS/MS analysis was carried out on a AB Sciex 4000 Q Trap LC/MS/MS system coupled with Shimadzu Prominence UFLCXR 20 series (including a CBM-20A controller, two LC-20ADXR solvent delivery units, SIL-20AC HT autosampler, CTO-20A column oven, and a SPD-20A UV detector).

RAF1 = experiment: Off-chip Mobility Shift Assay; type: biochemical
BTK = target: T1, BTK (Homo sapiens, UniProt Q06187); experiment: Off-chip Mobility Shift Assay; type: biochemical; settings: read-out: IC50, recombinant BTK activity
T1 construct: purchased Carna Biosciences
T1 sequence (Q06187 whole entry): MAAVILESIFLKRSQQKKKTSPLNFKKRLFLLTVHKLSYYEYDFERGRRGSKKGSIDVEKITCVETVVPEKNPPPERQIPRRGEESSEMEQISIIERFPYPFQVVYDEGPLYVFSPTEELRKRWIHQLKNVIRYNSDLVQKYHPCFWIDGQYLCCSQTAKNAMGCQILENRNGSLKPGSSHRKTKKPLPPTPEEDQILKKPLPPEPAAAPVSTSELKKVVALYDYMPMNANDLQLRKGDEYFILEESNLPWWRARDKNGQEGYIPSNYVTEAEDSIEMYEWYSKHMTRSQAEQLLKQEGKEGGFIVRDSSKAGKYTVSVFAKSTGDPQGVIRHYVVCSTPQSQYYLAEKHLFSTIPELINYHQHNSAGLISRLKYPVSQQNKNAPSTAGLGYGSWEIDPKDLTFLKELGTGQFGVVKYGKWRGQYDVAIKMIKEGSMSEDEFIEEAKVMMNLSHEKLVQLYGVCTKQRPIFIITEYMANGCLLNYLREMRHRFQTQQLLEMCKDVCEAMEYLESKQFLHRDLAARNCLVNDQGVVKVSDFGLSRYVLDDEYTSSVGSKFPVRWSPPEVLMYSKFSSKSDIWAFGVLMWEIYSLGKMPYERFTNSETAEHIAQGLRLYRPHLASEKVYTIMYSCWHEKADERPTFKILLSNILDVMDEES

[2] = Pharmacokinetics in Sprague-Dawley rats, 2-in-1 dosing; type: in vivo; settings: for clearance / Vd / AUC(0-inf) / AUC(0-t) / half-life / bioavailability / Cmax / Tmax: Sprague-Dawley, rat; for clearance / Vd / AUC(0-inf) / AUC(0-t) / half-life / bioavailability: plasma; for clearance: read-out: CL (plasma clearance) (converted); for Vd: read-out: V (volume of distribution); for AUC(0-inf) / AUC(0-t) / half-life / Cmax / Tmax: single dose; for bioavailability: read-out: F (percent oral bioavailability); for intravenous plasma clearance compared to dasatinib and compound III / intravenous volume of distribution compared to dasatinib and compound III: Sprague-Dawley rats
Protocol: Sprague-Dawley rats (approximate weight 275-300 g, N=3) were dosed intravenously at 5 mL/kg and orally at 10 mL/kg with the above dosing solutions. Blood samples were collected into tubes containing EDTA as the anticoagulant at 0, 0.25 (intravenous only), 0.5, 1, 2, 4, 8, 10, and 24 h post-dosing, and plasma samples were prepared by centrifugation. The plasma samples were mixed with 3× volumes of acetonitrile containing 100 nM reserpine as the internal standard, and centrifuged at 4000 RPM for 15 min. The supernatants were injected for LC/MS analysis which were carried out on a AB Sciex 4000 Q Trap LC/MS/MS system coupled with Shimadzu Prominence UFLCXR 20 series (including a CBM-20A controller, two LC-20ADXR solvent delivery units, SIL-20AC HT autosampler, CTO-20A column oven, and a SPD-20A UV detector). The samples were separated on a Phenomenex Columbus column (C18, 4 μm, 50×2 mm) eluted with two solvent systems: 2 mM ammonium acetate in water containing 0.1% formic acid (A) and methanol (B) at a linear gradient starting with 25% B. Electrospray ionization in positive mode was used to acquire LC/MS/MS data.

[3] = iv, 1 mg/kg, intravenous 1 mg/kg, single dose (Table 2)
[4] = iv, 1 mg/kg, intravenous 1 mg/kg, single dose (Table 3)
[5] = iv, 1 mg/kg, intravenous 1 mg/kg, plasma (Table 2)
[6] = iv, 1 mg/kg, intravenous 1 mg/kg, plasma (Table 2), read-out: t1/2 (converted)
[7] = iv, 1 mg/kg, intravenous 1 mg/kg, plasma (Table 3)
[8] = iv, 1 mg/kg, intravenous 1 mg/kg, plasma (Table 3), read-out: t½ (converted)
[9] = po, 2.5 mg/kg, PO 2.5 mg/kg, plasma (Table 2)
[10] = po, 2.5 mg/kg, PO 2.5 mg/kg, plasma (Table 2), read-out: t1/2 (converted)
[11] = po, 5 mg/kg, PO 5 mg/kg, plasma (Table 3)
[12] = po, 5 mg/kg, PO 5 mg/kg, plasma (Table 3), read-out: t½ (converted)
[13] = PO 2.5 mg/kg versus intravenous 1 mg/kg, AUCinf dose normalized (Table 2)

SMILES	microsomal CLint at 1 μM [1] [µL/min/mg]	half-life at 1 μM [1] [h]	clearance [2, 3] [mL/min/kg]	Vd [2, 3] [L/kg]	AUC(0-inf) [2, 5] [ng·h/mL]	AUC(0-t) [2, 5] [ng·h/mL]	half-life [2, 6] [h]	AUC(0-inf) [2, 9] [ng·h/mL]	AUC(0-t) [2, 9] [ng·h/mL]	half-life [2, 10] [h]	bioavailability [2, 13] [%]	Cmax ([2]; PO 2.5 mg/kg, plasma (Table 2)) [ng/mL]	Tmax ([2]; PO 2.5 mg/kg, plasma (Table 2)) [h]	metabolic stability as compared to dasatinib [1]	also measured
[2H]c1cc(C)c(NC(=O)c2cnc(Nc3cc(N4CCC(O)CC4)nc(C)n3)s2)c(Cl)c1 [Compound II, N-(2-chloro-4-deuterio-6-methyl-phenyl)-2-[[6-(4-hydroxy-1-piperidyl)-2-methyl-pyrimidin-4-yl]amino]thiazole-5-carboxamide]	44	0.533													inhibition of RAF1 (RAF1; 1 nM): < 50%; inhibition of RAF1 (RAF1; 10 nM): < 50%; inhibition of RAF1 (RAF1; 100 nM): < 50%; IC50 (BTK): < 1 nM
[2H]c1cc(C)c(NC(=O)c2cnc(Nc3cc(N4CCN(CCO)CC4)nc(C)n3)s2)c(Cl)c1 [Compound III]		0.4	20.2	3	835 ± 114	835 ± 114	1.6 ± 0.1	144 ± 68	139 ± 69	4.7 ± 2.2	7.2 ± 4.2	9 ± 6	5.5 ± 4.3		clearance [2, 4]: 18.6 mL/min/kg; Vd [2, 4]: 3 L/kg; AUC(0-inf) [2, 7]: 917 ± 161 ng·h/mL; AUC(0-t) [2, 7]: 916 ± 161 ng·h/mL; half-life [2, 8]: 1.7 ± 0.2 h; AUC(0-inf) [2, 11]: 137 ± 20 ng·h/mL; AUC(0-t) [2, 11]: 124 ± 26 ng·h/mL; half-life [2, 12]: 8.2 ± 4.1 h; bioavailability ([2]; PO 5 mg/kg versus intravenous 1 mg/kg, AUCinf dose normalized (Table 3)): 6 ± 0.9%; Cmax ([2]; PO 5 mg/kg, plasma (Table 3)): 11 ± 11 ng/mL; Tmax ([2]; PO 5 mg/kg, plasma (Table 3)): 0.5 h
[2H]c1cc(C)c(NC(=O)c2cnc(Nc3cc(N4CC[C@H](O)C4)nc(C)n3)s2)c(Cl)c1 [Compound IV, N-(2-chloro-4-deutero-6-methylphenyl)-2-[[2-methyl-6-((S)-3-hydroxypyrrolidin-1-yl)pyrimidin-4-yl]amino]thiazole-5-carboxamide]	< 24	> 0.983	8.92	1	1880 ± 153	1880 ± 152	1.4 ± 0.1	892 ± 341	891 ± 341	2.3 ± 0.2	18.9 ± 6.7	82 ± 13	5.5 ± 4.3	significantly greater stability	intravenous plasma clearance compared to dasatinib and compound III [2]: much lower; intravenous volume of distribution compared to dasatinib and compound III [2]: significantly lower
Cc1nc(Nc2ncc(C(=O)Nc3c(C)cccc3Cl)s2)cc(N2CCC(O)CC2)n1 [Compound IX, N-(2-chloro-6-methylphenyl)-2-[[2-methyl-6-(4-hydroxypiperidin-1-yl)pyrimidin-4-yl]amino]thiazole-5-carboxamide]	56	0.417													
[2H]c1cc(C)c(NC(=O)c2cnc(Nc3cc(N4CC[C@@H](O)C4)nc(C)n3)s2)c(Cl)c1 [Compound V, N-(2-chloro-4-deutero-6-methylphenyl)-2-[[2-methyl-6-((R)-3-hydroxypyrrolidin-1-yl)pyrimidin-4-yl]amino]thiazole-5-carboxamide]	< 24	> 0.983	8.57	1	1960 ± 214	1960 ± 214	1.4 ± 0.1	539 ± 188	524 ± 191	4.4 ± 2.8	11.1 ± 4.3	35 ± 19	5.5 ± 4.3	significantly greater stability	intravenous plasma clearance compared to dasatinib and compound III [2]: much lower; intravenous volume of distribution compared to dasatinib and compound III [2]: significantly lower
[2H]c1cc(C)c(NC(=O)c2cnc(Nc3cc(N4CC[C@H](N)C4)nc(C)n3)s2)c(Cl)c1 [Compound VI, N-(2-chloro-4-dutero-6-methylphenyl)-2-[[2-methyl-6-((S)-3-aminopyrrolidin-1-yl)pyrimidin-4-yl]amino]thiazole-5-carboxamide]														significantly greater stability	
[2H]c1cc(C)c(NC(=O)c2cnc(Nc3cc(N4CC[C@@H](N)C4)nc(C)n3)s2)c(Cl)c1 [Compound VII, N-(2-chloro-4-deutero-6-methylphenyl)-2-[[2-methyl-6-((R)-3-aminopyrrolidin-1-yl)pyrimidin-4-yl]amino]thiazole-5-carboxamide]														significantly greater stability	
Cc1nc(Nc2ncc(C(=O)Nc3c(C)cccc3Cl)s2)cc(N2CCCCC2)n1 [Compound VIII, N-(2-chloro-6-methylphenyl)-2-[[2-methyl-6-(piperidin-1-yl)pyrimidin-4-yl]amino]thiazole-5-carboxamide]														significantly greater stability	
Cc1nc(Nc2ncc(C(=O)Nc3c(C)cccc3Cl)s2)cc(N2CC[C@H](N)C2)n1 [Compound XII, N-(2-chloro-6-methylphenyl)-2-[[2-methyl-6-((S)-3-aminopyrrolidin-1-yl)pyrimidin-4-yl]amino]thiazole-5-carboxamide]														significantly greater stability	
Cc1nc(Nc2ncc(C(=O)Nc3c(C)cccc3Cl)s2)cc(N2CC[C@@H](N)C2)n1 [Compound XIII, N-(2-chloro-6-methylphenyl)-2-[[2-methyl-6-((R)-3-aminopyrrolidin-1-yl)pyrimidin-4-yl]amino]thiazole-5-carboxamide]														significantly greater stability	
Cc1nc(Nc2ncc(C(=O)Nc3c(C)cccc3Cl)s2)cc(N2CCN(CCO)CC2)n1 [Dasatinib, reference compound]			21.3	3	784 ± 54	783 ± 54	1.5	196 ± 85	193 ± 86	3.5 ± 0.5	9.8 ± 3.6	15 ± 5	5.5 ± 4.3		clearance [2, 4]: 16.5 mL/min/kg; Vd [2, 4]: 2 L/kg; AUC(0-inf) [2, 7]: 1010 ± 68 ng·h/mL; AUC(0-t) [2, 7]: 1010 ± 68 ng·h/mL; half-life [2, 8]: 1.7 ± 0.3 h; AUC(0-inf) [2, 11]: 97 ± 22 ng·h/mL; AUC(0-t) [2, 11]: 93 ± 23 ng·h/mL; half-life [2, 12]: 5.9 ± 1.5 h; Cmax ([2]; PO 5 mg/kg, plasma (Table 3)): 7 ± 7 ng/mL; Tmax ([2]; PO 5 mg/kg, plasma (Table 3)): 0.5 h
